Experimental data: ChEMBL document CHEMBL5143557, “Synthesis and biological evaluation of 3β-O-neoglycosides of caudatin and its analogues as potential anticancer agents” (Bioorg Med Chem, 2022)

Key:
HepG2 [1] = assay: Cell cycle arrest in human HepG2 cells assessed as number of cells at S phase at 10 uM after 48 hrs by flow cytometry (reference value: 24.31%); type: functional
HeLa = assay: Antiproliferative activity against human HeLa cells after 48 hrs by MTT assay; type: functional, cell-based
HepG2 [2] = assay: Induction of apoptosis in human HepG2 cells assessed as necrotic cells at 5 uM measured after 48 hrs by annexin-V and PI staining based flow cytometry (reference value: 0.363%); type: functional
HepG2 [3] = assay: Cell cycle arrest in human HepG2 cells assessed as number of cells at G1 phase at 20 uM after 48 hrs by flow cytometry (reference value: 57.68%); type: functional
HepG2 [4] = assay: Induction of apoptosis in human HepG2 cells assessed as live cells at 10 uM measured after 48 hrs by annexin-V and PI staining based flow cytometry (reference value: 91%); type: functional
HepG2 [5] = assay: Induction of apoptosis in human HepG2 cells assessed as necrotic cells at 10 uM measured after 48 hrs by annexin-V and PI staining based flow cytometry (reference value: 0.363%); type: functional
HepG2 [6] = assay: Induction of apoptosis in human HepG2 cells assessed as late apoptotic cells at 10 uM measured after 48 hrs by annexin-V and PI staining based flow cytometry (reference value: 4.52%); type: functional
HCT-116 = assay: Antiproliferative activity against human HCT-116 cells after 48 hrs by MTT assay; type: functional, cell-based; details: HCT-116, 48 h
HepG2 [7] = assay: Cell cycle arrest in human HepG2 cells assessed as number of cells at G2 phase at 20 uM after 48 hrs by flow cytometry (reference value: 16.28%); type: functional
HepG2 [8] = assay: Cell cycle arrest in human HepG2 cells assessed as number of cells at S phase at 20 uM after 48 hrs by flow cytometry (reference value: 24.31%); type: functional
HepG2 [9] = assay: Antiproliferative activity against human HepG2 cells after 48 hrs by MTT assay; type: functional, cell-based; details: HepG2, 48 h
HepG2 [10] = assay: Induction of apoptosis in human HepG2 cells assessed as early apoptotic cells at 5 uM measured after 48 hrs by annexin-V and PI staining based flow cytometry (reference value: 4.11%); type: functional
HepG2 [11] = assay: Cell cycle arrest in human HepG2 cells assessed as number of cells at G1 phase at 10 uM after 48 hrs by flow cytometry (reference value: 57.68%); type: functional
HepG2 [12] = assay: Cell cycle arrest in human HepG2 cells assessed as number of cells at G1 phase at 5 uM after 48 hrs by flow cytometry (reference value: 57.68%); type: functional
HepG2 [13] = assay: Induction of apoptosis in human HepG2 cells assessed as early apoptotic cells at 10 uM measured after 48 hrs by annexin-V and PI staining based flow cytometry (reference value: 4.11%); type: functional
HepG2 [14] = assay: Induction of apoptosis in human HepG2 cells assessed as live cells at 5 uM measured after 48 hrs by annexin-V and PI staining based flow cytometry (reference value: 91%); type: functional
HepG2 [15] = assay: Induction of apoptosis in human HepG2 cells assessed as late apoptotic cells at 20 uM measured after 48 hrs by annexin-V and PI staining based flow cytometry (reference value: 4.52%); type: functional
HepG2 [16] = assay: Induction of apoptosis in human HepG2 cells assessed as live cells at 20 uM measured after 48 hrs by annexin-V and PI staining based flow cytometry (reference value: 91%); type: functional
HepG2 [17] = assay: Cell cycle arrest in human HepG2 cells assessed as number of cells at S phase at 5 uM after 48 hrs by flow cytometry (reference value: 24.31%); type: functional
HepG2 [18] = assay: Induction of apoptosis in human HepG2 cells assessed as early apoptotic cells at 20 uM measured after 48 hrs by annexin-V and PI staining based flow cytometry (reference value: 4.11%); type: functional
MCF7 = assay: Antiproliferative activity against human MCF7 cells after 48 hrs by MTT assay; type: functional, cell-based; details: MCF7, 48 h
HepG2 [19] = assay: Induction of apoptosis in human HepG2 cells assessed as necrotic cells at 20 uM measured after 48 hrs by annexin-V and PI staining based flow cytometry (reference value: 0.363%); type: functional
HepG2 [20] = assay: Cell cycle arrest in human HepG2 cells assessed as number of cells at G2 phase at 10 uM after 48 hrs by flow cytometry (reference value: 16.28%); type: functional
HepG2 [21] = assay: Cell cycle arrest in human HepG2 cells assessed as number of cells at G2 phase at 5 uM after 48 hrs by flow cytometry (reference value: 16.28%); type: functional
HepG2 [22] = assay: Induction of apoptosis in human HepG2 cells assessed as late apoptotic cells at 5 uM measured after 48 hrs by annexin-V and PI staining based flow cytometry (reference value: 4.52%); type: functional

CC(=O)OC[C@@H]1O[C@H](O[C@H]2CC[C@@]3(C)C(=CC[C@]4(O)[C@@H]3C[C@@H](OC(=O)/C=C(\C)C(C)C)[C@@]3(C)[C@]4(O)CC[C@@]3(O)C(C)=O)C2)[C@@H](OC(C)=O)[C@H](OC(C)=O)[C@H]1OC(C)=O
Activity (HepG2 [1]): 34.6%
IC50 (HeLa): 7.6 µM
Activity (HepG2 [2]): 0.068%
Activity (HepG2 [3]): 41.76%
Activity (HepG2 [4]): 57%
Activity (HepG2 [5]): 0.096%
Activity (HepG2 [6]): 7.26%
IC50 (HCT-116): 5.64 µM
Activity (HepG2 [7]): 15.99%
Activity (HepG2 [8]): 38.82%
IC50 (HepG2 [9]): 3.11 µM
Activity (HepG2 [10]): 11.3%
Activity (HepG2 [11]): 46.89%
Activity (HepG2 [12]): 51.38%
Activity (HepG2 [13]): 35.6%
Activity (HepG2 [14]): 83.5%
Activity (HepG2 [15]): 5.34%
Activity (HepG2 [16]): 18%
Activity (HepG2 [17]): 28.72%
Activity (HepG2 [18]): 76.5%
IC50 (MCF7): 9.04 µM
Activity (HepG2 [19]): 0.184%
Activity (HepG2 [20]): 15.75%
Activity (HepG2 [21]): 16.95%
Activity (HepG2 [22]): 5.07%

CC(=O)O[C@H]1[C@H](O[C@H]2CC[C@@]3(C)C(=CC[C@]4(O)[C@@H]3C[C@@H](OC(=O)/C=C(\C)C(C)C)[C@@]3(C)[C@]4(O)CC[C@@]3(O)C(C)=O)C2)OC[C@@H](OC(C)=O)[C@H]1OC(C)=O
IC50 (HeLa): 58.7 µM
IC50 (HCT-116): 52.1 µM
IC50 (HepG2 [9]): 30.8 µM
IC50 (MCF7): 61.1 µM

CC(=O)O[C@@H]1[C@@H](OC(C)=O)[C@H](O[C@H]2CC[C@@]3(C)C(=CC[C@]4(O)[C@@H]3C[C@@H](OC(=O)/C=C/c3ccccc3)[C@@]3(C)[C@]4(O)CC[C@@]3(O)[C@H](C)OC(=O)c3cccnc3)C2)OC[C@H]1OC(C)=O
IC50 (HeLa): > 100 µM
IC50 (HCT-116): 63.6 µM
IC50 (HepG2 [9]): 70.1 µM
IC50 (MCF7): > 100 µM

CC(=O)[C@]1(O)CC[C@@]2(O)[C@]1(C)[C@H](OC(=O)c1ccc(O)cc1)C[C@@H]1[C@@]3(C)CC[C@H](O[C@@H]4O[C@H](CO)[C@H](O)[C@H](O)[C@H]4O)CC3=CC[C@]12O
IC50 (HeLa): 25.1 µM
IC50 (HCT-116): 27.3 µM
IC50 (HepG2 [9]): 23.7 µM
IC50 (MCF7): 20.9 µM
